For data set [1], the system named is SK-OV-3 cells. As to the kind of experiment: Live cell fluorescence microscopy of F’-GpYEEI uptake. The format is cell-based, human. The note with it: F’-GpYEEI 5 µM alone, no carrier peptide, 3 h, FITC channel. How it is done: Fluorescence microscopy was used to confirm the intracellular uptake of F’-GpYEEI in the presence of cyclic [WH]5. The fluorescence intensity of F’-GpYEEI (5 µM) was visualized in a physical mixture with cyclic [WH]5 (50 µM) compared to that of F’-GpYEEI alone in SK-OV-3 cells. […] F’-GpYEEI alone was used as a control in this assay. Live cell imaging was carried using glass-bottom plates.
SK-OV-3 cells were grown with antibiotic-free DMEM 24 h prior to the experiment in a glass bottom petri-dish (60 mm × 15 mm) of 5000 cells per mL of media. The F’-GpYEEI was incubated with cyclic [WH]5 for 30 min at room temperature. Then, the cells were treated with a mixture of F’-GpYEEI (5 μM) and cyclic [WH]5 (50 μM) in Opti-MEM for 3 h at 37 °C. After 3 h, the medium containing the treatments was removed, and PBS was added to cells. The cells were washed with PBS for two times. Images were acquired with BZ-X710 fluorescence microscope (Keyence, Osaka, Japan) at 100× magnification for brightfield and FITC channels. Images were merged and processed using Image J software to visualize the fluorescence uptake by cells.

The subject of data set [2] is SK-OV-3 cells. As to the kind of experiment: MTS cell viability (cytotoxicity) assay. As to conditions: peptide 10, 50 and 100 µM (up to 100 µM), 3 h incubation, 37 °C, read at 490 nm, triplicate.
Procedure: (§1) To determine concentration of peptide to be used in in vitro assays, the cytotoxicity of peptides was evaluated in two cell lines, human ovarian (SK-OV-3) and leukemia (CCRF-CEM) cancer cells.
(§2) Human leukemia CCRF-CEM (ATCC # CCL-119) and ovarian carcinoma SK-OV-3 (ATCC # HTB-77) cell lines were purchased from the American Type Culture Collection. Cells were grown on 75 cm^2 cell culture flasks. The Roswell Park Memorial Institute (RPMI)-1640 medium was used for leukemia cells and McCoy’s 5A medium was used for SK-OV-3 cells. The medium was supplemented with 10% fetal bovine serum (FBS), 1% penicillin−streptomycin solution (10,000 units of penicillin, and 10 mg of streptomycin in 0.9% NaCl) in a humidified atmosphere of 5% CO2 at 37 °C. All bioassays were performed in triplicate.
(§3) The cytotoxicity assay was performed via an MTS proliferation assay in CCRF-CEM and SK-OV-3 cells. CCRF-CEM (40,000 cells) and SK-OV-3 (5000 cells) were incubated with 100 µL of complete media. The cells were seeded overnight in 96 well plates. […] The fluorescence intensity of the formazan product was measured at 490 nm using a Spectra Max M2 microplate spectrophotometer. The percentage of cell survival was calculated as [(OD value of cells treated with the test mixture of compounds) − (OD value of culture medium)]/[(OD value of control cells) − (OD value of culture medium)] × 100%.
Data set [3] relates to CCRF-CEM cells. As to the kind of experiment: MTS cell viability (cytotoxicity) assay. The note with it: peptide 10, 50 and 100 µM (up to 100 µM), 3 h incubation, 37 °C, read at 490 nm, triplicate.
Procedure: as §1, §2, §3

Non-standard residues stand in square brackets, D forms with d. Residues, ends and D or L forms follow the SMILES beside them. *: point of attachment. 5FAM = O=C1OC2(c3ccc(O)cc3Oc3cc(O)ccc32)c2ccc(C(=O)*)cc21; pY = N[C@@H](Cc1ccc(OP(=O)(O)O)cc1)C(=O)O

On to `CC[C@H](C)[C@H](NC(=O)[C@H](CCC(=O)O)NC(=O)[C@H](CCC(=O)O)NC(=O)[C@H](Cc1ccc(OP(=O)(O)O)cc1)NC(=O)CNC(=O)c1ccc2c(c1)C(=O)OC21c2ccc(O)cc2Oc2cc(O)ccc21)C(=O)O` [F’-GpYEEI] (5FAM-G[pY]EEI-OH), for which the “cellular uptake of F’-GpYEEI alone (fluorescence microscopy)” value in data set [1] is “No green fluorescence was observed”.

For the compound `O=C1N[C@@H](Cc2c[nH]c3ccccc23)C(=O)N[C@@H](Cc2c[nH]cn2)C(=O)N[C@@H](Cc2c[nH]c3ccccc23)C(=O)N[C@@H](Cc2c[nH]cn2)C(=O)N[C@@H](Cc2c[nH]c3ccccc23)C(=O)N[C@@H](Cc2c[nH]cn2)C(=O)N[C@@H](Cc2c[nH]c3ccccc23)C(=O)N[C@@H](Cc2c[nH]cn2)C(=O)N[C@@H](Cc2c[nH]c3ccccc23)C(=O)N[C@H]1Cc1c[nH]cn1` [cyclic [WH]5] (cyclo(HWHWHWHWHW)), the “cytotoxicity (cell survival, MTS)” value in data set [2] and in data set [3] was “did not show significant toxicity” in each case.

For the origin of these results see paper PMC6100250, “Efficient Intracellular Delivery of Cell-Impermeable Cargo Molecules by Peptides Containing Tryptophan and Histidine” (Molecules : A Journal of Synthetic Chemistry and Natural …, 2018).
